{"source": "paper PMC3266934", "about": "“The Murine Coronavirus Hemagglutinin-esterase Receptor-binding Site: A Major Shift in Ligand Specificity through Modest Changes in Architecture” (PLoS Pathogens, 2012)", "target": "T1, MHV-S HE ectodomain (HE / HE^0) (Murine hepatitis virus strain S, UniProt P31614)", "T1 construct": "HEK293T or HEK293 GnTI(-); codon-optimized synthetic gene; homodimer", "T1 sequence (P31614 25-403)": "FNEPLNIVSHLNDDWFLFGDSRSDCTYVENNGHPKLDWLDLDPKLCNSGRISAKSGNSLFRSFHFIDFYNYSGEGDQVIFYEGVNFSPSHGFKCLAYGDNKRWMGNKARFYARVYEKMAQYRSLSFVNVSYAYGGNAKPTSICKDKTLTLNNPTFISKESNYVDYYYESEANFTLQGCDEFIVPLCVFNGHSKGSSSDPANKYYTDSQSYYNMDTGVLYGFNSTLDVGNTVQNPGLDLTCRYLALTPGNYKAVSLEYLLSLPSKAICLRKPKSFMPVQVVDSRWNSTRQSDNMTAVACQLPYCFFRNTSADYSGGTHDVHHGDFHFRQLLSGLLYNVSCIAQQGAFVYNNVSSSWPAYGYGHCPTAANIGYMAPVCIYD", "assay": "GC-MS of enzymatic de-O-acetylation", "assay_type": "biochemical", "settings": "sialate-4-O-acetylesterase site; thrombin-released ectodomain"}
{"molecule": "CO[C@]1(C(=O)O)C[C@H](OC(C)=O)[C@@H](NC(C)=O)[C@H]([C@H](O)[C@H](O)COC(C)=O)O1", "note": "[αNeu4,5,9Ac32Me, 5-N-acetyl-4,9-di-O-acetylneuraminic acid α-methylglycoside]", "values": [{"measurement": "GC-MS of enzymatic de-O-acetylation", "result": "retained proper sialate-4-O-acetylesterase activity when assayed for substrate specificity with a synthetic di-O-acetylated Sia"}]}
